Experimental data from ChEMBL document CHEMBL2375327, “Carbonic anhydrase inhibitors: inhibition of the β-class enzyme from the pathogenic yeast Candida glabrata with sulfonamides, sulfamates and sulfamides” (Bioorg Med Chem Lett, 2013).

How the values were obtained:
[1] = biological target: T1, Carbonic anhydrase (Candida glabrata CBS 138, UniProt Q6FTL6); set-up: species or system Nakaseomyces glabratus
T1 sequence (Q6FTL6 whole entry): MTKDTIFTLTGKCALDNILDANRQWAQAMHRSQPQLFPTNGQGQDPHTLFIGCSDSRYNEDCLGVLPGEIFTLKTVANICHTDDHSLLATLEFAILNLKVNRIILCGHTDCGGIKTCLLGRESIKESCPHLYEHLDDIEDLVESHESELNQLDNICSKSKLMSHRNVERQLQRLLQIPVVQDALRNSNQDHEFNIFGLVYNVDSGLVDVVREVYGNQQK

[2] = biological target: T2, Carbonic anhydrase (Candida albicans (strain SC5314 / ATCC MYA-2876) (Yeast), UniProt Q5AJ71)
T2 sequence (Q5AJ71 whole entry): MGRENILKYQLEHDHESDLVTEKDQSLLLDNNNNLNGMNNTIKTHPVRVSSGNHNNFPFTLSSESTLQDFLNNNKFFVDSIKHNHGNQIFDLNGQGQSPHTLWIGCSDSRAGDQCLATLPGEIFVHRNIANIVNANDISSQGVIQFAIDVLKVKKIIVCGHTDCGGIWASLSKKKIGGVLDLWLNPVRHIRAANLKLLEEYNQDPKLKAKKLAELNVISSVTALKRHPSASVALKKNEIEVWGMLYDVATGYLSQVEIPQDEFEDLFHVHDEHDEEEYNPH

[3] = Selectivity ratio of Ki for human carbonic anhydrase-2 to Ki for recombinant full length Candida glabrata NCE103
[4] = biological target: Carbonic anhydrase 2 (Homo sapiens, UniProt P00918); assay: Inhibition of human carbonic anhydrase-2 preincubated for 15 mins by stopped-flow CO2 hydrase assay

SMILES | Ki ([1]; read-out: Ki) [nM] | Ki [2] [nM] | also measured
Nc1ccc(S(=O)(=O)Nc2nnc(S(N)(=O)=O)s2)cc1 | 106 | – | –
NS(=O)(=O)Nc1ccc(NC(=O)NC2CCCCC2)cc1 | 80.1 | 134 | –
NCCc1ccc(S(N)(=O)=O)cc1 | 550 | – | –
NS(=O)(=O)c1ccc(NC(=O)Nc2ccccc2)cc1 | 73 | – | –
Cc1ccc(S(N)(=O)=O)cc1 [P-TOLUENESULFONAMIDE] | 846 | – | –
Nc1ccc(S(N)(=O)=O)cc1Cl | 97 | – | –
NS(=O)(=O)c1ccc(NC(=O)Nc2cccc([N+](=O)[O-])c2)cc1 | 6.1 | – | –
NS(=O)(=O)Nc1ccc(NC(=O)Nc2ccc(Cl)cc2)cc1 | 5.5 | 102 | Ratio Ki [3]: 57
NS(=O)(=O)Oc1ccc(NC(=O)Nc2ccccc2)cc1 | 9.6 | – | –
N#Cc1ccccc1NC(=O)Nc1ccc(OS(N)(=O)=O)cc1 | 89 | 156 | –
Nc1nccc(Nc2ccc(S(N)(=O)=O)cc2)n1 | 83 | – | –
NS(=O)(=O)Nc1ccc(NC(=O)NCCc2ccccc2)cc1 | 15.1 | 130 | –
NS(=O)(=O)Oc1ccc(NC(=O)Nc2ccc3c(c2)Cc2ccccc2-3)cc1 | 115 | 76 | –
Nc1ccc(S(N)(=O)=O)cc1F | 98 | – | –
Nc1cc(Cl)c(S(N)(=O)=O)cc1S(N)(=O)=O | 86 | – | –
NS(=O)(=O)c1nnc(NS(=O)(=O)c2ccccc2)s1 [BENZOLAMIDE] | 952 | – | –
NS(=O)(=O)c1ccc(NC(=O)NCCc2ccccc2)cc1 | 56 | 124 | Ki [4]: 660 nM
NS(=O)(=O)c1ccc(CO)cc1 | 61 | – | –
NS(=O)(=O)Oc1ccc(NC(=O)Nc2cccc3ccccc23)cc1 | 89 | 1430 | –
NS(=O)(=O)Oc1ccc(NC(=O)Nc2cccc(Cl)c2)cc1 | 89 | 124 | –
NS(=O)(=O)Nc1ccc(NC(=O)Nc2ccccc2-c2ccccc2)cc1 | 6.7 | 72 | –
NS(=O)(=O)c1ccc(NC(=O)Nc2ccc(Cl)cc2)cc1 | 7 | – | –
NS(=O)(=O)c1ccc(NC(=O)NCc2ccccc2)cc1 | 81 | – | –
NS(=O)(=O)Nc1ccc(NC(=O)NCc2ccco2)cc1 | 24.1 | 58 | –
NS(=O)(=O)c1ccc(NC(=O)Nc2ccc(Br)cc2)cc1 | 5.4 | – | –
Nc1nnc(S(N)(=O)=O)s1 | 95 | – | –
Nc1ccc(S(=O)(=O)NCCc2ccc(S(N)(=O)=O)cc2)cc1 | 98 | – | –

SMILES | Ki ([1]; read-out: Ki) [nM] | Ki [2] [nM] | also measured
Nc1ccc(S(N)(=O)=O)cc1Br | 109 | – | –
Cc1cc(C)cc(NC(=O)Nc2ccc(NS(N)(=O)=O)cc2)c1 | 8.5 | 139 | –
NS(=O)(=O)c1ccc(C(=O)O)cc1 [CARZENIDE] | 53 | – | –
NS(=O)(=O)c1nnc(-c2ccccc2Cl)s1 | 420 | – | –
NS(=O)(=O)Oc1ccc(NC(=O)Nc2ccc(Cl)cc2)cc1 | 9.4 | 505 | –
CC1(C)O[C@@H]2[C@@H](CO[C@@]3(COS(N)(=O)=O)OC(C)(C)O[C@@H]23)O1 [TOPIRAMATE] | 110 | – | –
Nc1ccc(S(N)(=O)=O)cc1 [SULFANILAMIDE] | 8010 | – | –
CCN[C@H]1CN(CCCOC)S(=O)(=O)c2sc(S(N)(=O)=O)cc21 [BRINZOLAMIDE] | 4350 | – | –
Cc1ccc(-c2cc(C(F)(F)F)nn2-c2ccc(S(N)(=O)=O)cc2)cc1 [CELECOXIB] | 116 | – | –
NS(=O)(=O)Oc1ccc(NC(=O)Nc2c(F)cc(F)cc2Br)cc1 | 5 | 84 | –
NS(=O)(=O)Oc1ccc(NC(=O)NCCc2ccccc2)cc1 | 7.5 | 133 | –
NS(=O)(=O)Nc1ccc(NC(=O)NCc2ccccc2)cc1 | 24.3 | 146 | –
NCc1ccc(S(N)(=O)=O)cc1 [MAFENIDE] | 865 | – | –
CCCCOc1ccc(NC(=O)Nc2ccc(NS(N)(=O)=O)cc2)cc1 | 13.9 | 135 | –
Cc1onc(-c2ccccc2)c1-c1ccc(S(N)(=O)=O)cc1 [VALDECOXIB] | 97 | – | –
CC(C)c1ccccc1NC(=O)Nc1ccc(NS(N)(=O)=O)cc1 | 33.8 | 55 | –
Nc1ccc(S(N)(=O)=O)cc1I | – | – | Ki [1]: 128 nM
Nc1cc(C(F)(F)F)c(S(N)(=O)=O)cc1S(N)(=O)=O | 97 | – | –
NS(=O)(=O)Oc1ccc(NC(=O)Nc2ccc(C(F)(F)F)c(C(F)(F)F)c2C(F)(F)F)cc1 | 5.8 | 76 | –
NS(=O)(=O)Nc1ccc(NC(=O)Nc2cccc([N+](=O)[O-])c2)cc1 | 4.1 | 109 | –
Cn1nc(S(N)(=O)=O)sc1=N | 786 | – | –
NS(=O)(=O)c1ccc(CCO)cc1 | 48 | – | –
CCOc1ccc2nc(S(N)(=O)=O)sc2c1 [ETHOXZOLAMIDE] | 3130 | – | –
NS(=O)(=O)Oc1ccc(NC(=O)Nc2ccc([N+](=O)[O-])cc2)cc1 | 6.4 | 106 | –
NS(=O)(=O)c1ccc(S(=O)(=O)Nc2cccc3c(Cl)c[nH]c23)cc1 | 94 | – | –
Nc1ccc(S(=O)(=O)NCc2ccc(S(N)(=O)=O)cc2)cc1 | 108 | – | –
NS(=O)(=O)Oc1ccc(NC(=O)NCc2ccccc2)cc1 | 8.4 | 137 | Ki [4]: 274 nM
